# Source: patent US6294568A, “5-arylpyrrole derivatives” (priority 1997, dated 2001)
# Legend:
# [1] = test system: adjuvant arthritis; experiment: Rat Adjuvant Arthritis Test; assay type: in vivo, SD rats; settings: 3 mg/kg, oral
# Protocol: SD rats were injected subcutaneously with […] liquid paraffin/rat of H-37RA strain in the plantar area of the right hind paw. Only liquid paraffin (0.05 ml) was administered to control groups in the same manner. 21 days after the administration, rats showing the evidence of arthritis were selected and divided into groups having equal mean left and right hind paw volumes, and also having equal arthritis scores. From the date of the grouping, the test samples were administered orally to the rats once daily for 7 days (only the solvent was administered to the negative and positive control groups). The degree of the arthritis was quantitatively evaluated by measuring the volumes of the left and right hind paws by using a volume meter (manufactured by Muromachi Kikai) and by scoring the degree of arthritis by macroscopic observation as illustrated in Table 2. According to the scoring criteria in Table 2, 15 is a perfect score.
# The dosage of each of the test samples was 3 mg/kg.
# [2] = test system: Brewer's Yeast Fever; experiment: Antipyretic Action Test With Respect To Brewer's Yeast Fever; assay type: in vivo, rats
# Protocol: The antipyretic action was measured as described in the following. A sensor was inserted into the rectum of each rats and the body temperature of one hour after the insertion was recorded as the basal body temperature. The rats were injected subcutaneously with 2 ml/body of 20% brewer's yeast at the region of back and, 18 hours after the injection, the intrafebrile body temperatures were measured. Rats who had shown not less than 0.75° C. of body temperature elevation were selected to whom the test samples was administered orally. The body temperatures of the selected rats were measured every one hour for the following 5 hours. The dosage of each of the test samples was 10 mg/kg.
# [3] = test system: CaCo-2 cells; experiment: Cytostatic Action Test on Various Cells (XTT method); assay type: cell-based
# Protocol: The cytostatic measurement of the various cancer cells were conducted according to the method of the U.S. National Cancer Institute (NCI). Adhesive cells such as CaCo-2 and HepG2 were adjusted in each of the specified culture mediums at 0.5×10^5 cells/ml concentration and pipetted into a 96 well-plate (Costar3695) in an amount of 100 μl/well. The cells were cultured under the conditions of at 37° C. in 5% CO2 atmosphere for 24 hours to allow the cell adhesion, and then the numbers of each of the cells were determined by the XTT method to be recorded as the cell number of day 0 (C0days). After that, only the medium solutions were exchanged in the control groups, and culture mediums each containing the test samples adjusted to each of the specified concentrations were exchanged In the test sample dispensing groups, then the cells were cultured under the conditions of at 37° C. in 5% CO2 atmosphere for 72 hours. The numbers of each of the cells were determined by the XTT method to be recorded as the cell number of day 3 (C3days). Further, only the medium solutions were pipetted into the control groups and the test sample administration groups were adjusted to 5×10^5 cells/ml concentrations in each of the specified culture mediums containing the test samples adjusted to each of the specified concentrations, then pipetted into a 96 well-plate (Costar3695) in an amount of 100 μl/well. The cells were cultured under the condition of at 37° C. in 5% CO2 atmosphere for 72 hours, and the number of each of the cells (T3days) were determined in the same manner.
# Cell proliferation rate (%) with respect to control groups=[(T3days
# -C0days)/(C3days -C0days)]×100 Formula: 5
structure (smiles),measurement,setting,value
"Cc1cc(-c2ccc(F)cc2)c(-c2ccc(S(C)(=O)=O)cc2)[nH]1 [Preparation Example 1, 4-(4-fluorophenyl)-2-methyl-5-(4-methylsulfonylphenyl)-1H-pyrrole]",Right Hind Paw Volume day 21,"[1]; day 21 (starting date of administration), once daily",3.86 mL
same,Right Hind Paw Volume day 27,"[1]; day 27, once daily for 7 days",2.96 mL
same,Body temperature 1 Hour After,"[2]; 10 mg/kg oral, 1 hour after",37.98 °C
same,Body temperature 3 Hours After,"[2]; 10 mg/kg oral, 3 hours after",37.10 °C
same,Body temperature 5 Hours After,"[2]; 10 mg/kg oral, 5 hours after",37.13 °C
same,Intrafebrile Body Temperature,"[2]; 18 hours after yeast injection, before administration, 10 mg/kg group",39.08 °C
same,Basal Body Temperature,"[2]; one hour after sensor insertion, before yeast, 10 mg/kg group",37.54 °C
same,cytostatic action,"[3]; CaCo-2 cells, colon cancer cells",demonstrated a cytostatic action with respect to CaCo-2 cells
same,IC50,"[3]; Homo sapiens, CaCo-2, 72 hours, XTT method, read-out: Cytostatic rate (IC50)",780 nM
